Assay results reported in patent publication US20240307351A1, “AGENT FOR ANTI-AGING OR FOR CELLULAR REJUVENATION” (TOHOKU UNIVERSITY, priority 2022, published 2024).

Legend:
[1] = Liver function markers in blood of C57BL6 mice; type: in vivo, mouse; settings: C57BL6 mice (8 weeks old), oral, 50 or 150 mg/kg/day, 7 days, vs DMSO corn oil
Procedure: Compound #4 of DMSO corn oil was orally administered to C57BL6 mice (8 weeks old) at a dose of 50 mg/kg/day per kg of mouse weight for 7 days ([Group L]).
In addition, Compound #4 of DMSO corn oil was orally administered to C57BL6 mice (8 weeks old) at a dose of 150 mg/kg/day per kg of mouse weight for 7 days ([Group H]).
Further, DMSO corn oil was orally administered to C57BL6 mice (8 weeks old) for 7 days ([Control group]).

SIRTI protein = assay: Amount of SIRT1 protein in RH30 cells by Western blotting; type: cell-based, human; settings: 30 μM, 24 hours, compared with Control group (DMSO)
Procedure: RH30 cells (human rhabdomyosarcoma cell line; gli gene expression+, N-myc gene expression+) at 1×10^6 cell/dish were seeded and cultured in a dish containing 10 mL of a culture solution (low-glucose-containing DMEM medium (glucose concentration of 1.0 g/dL) to which 10 wt. % of FBS was added). One day later, Compound #5 was added to have a concentration of 30 μM, and the mixture was cultured for 24 hours ([Compound #5 addition group]). Compound #9, Compound #13, Compound #21, Compound #30, or Compound #35 as the present compound was added in place of Compound #5, and the mixture was cultured in the same manner, respectively, as [Compound #9 addition group], [Compound #13 addition group], [Compound #21 addition group], [Compound #30 addition group], and […].
On the other hand, as a control, DMSO (dimethyl sulfoxide) was added to have a concentration of 0.2 wt. %, and the mixture was cultured for 24 hours ([Control group]).
After completion of culture, the cells were recovered, disrupted by a typical method, and the amount of each of the proteins (SIRTI proteins, etc.) in the cells was detected by Western blotting. Further, the results of quantification of each band in the detection results of the Western blotting in FIG. 6 through normalization with the band of β-actin as a loading control are shown in FIG. 7.

| SMILES | GOT in blood [1] | GPT in blood [1] | amount of SIRTI protein in cells (SIRTI protein) |
| --- | --- | --- | --- |
| O=C(CC(C(=O)O)c1c[nH]c2ccccc12)c1ccc(F)cc1 (centres unmarked) [Compound #4] | decreased | decreased |  |
| CCCCCCn1cc(CC(=O)O)c2ccccc21 [Compound #30] |  |  | increased |
| CC(C)(C)OC(=O)NCCCCCCC(C)(C(=O)O)c1c[nH]c2ccccc12 (centres unmarked) [Compound #13] |  |  | increased |
| CC(=O)N1CCC(CC(C(=O)O)c2c[nH]c3ccccc23)CC1 (centres unmarked) [Compound #9] |  |  | increased |
